“Also recorded” adds a separate entry of the source.
System: co-culture of Human Umbilical Vein Endothelial Cells (HUVEC) with Human Adult Dermal Fibroblasts
Assay: multicellular in vitro angiogenesis (tubule) assay, dual culture of HUVEC and fibroblasts
Type: cell-based
Conditions: VEGF 10 ngml^-1 added at the start and at each medium change; 14 days; von Willebrand factor immunoassay
Source text: The assay system involves co-culture of Human Umbilical Vein Endothelial Cells (HUVEC) with Human Adult Dermal Fibroblasts. Under the conditions provided the cells form a series of anastomosed tubules.
The Human Umbilical Vein Endothelial Cells (HUVEC) are commercially available from suitable outlets and in this case are bought in cryopreserved form. Prior to employment in the tubule assay, the cells are routinely passed and cultured in any suitable commercially available Endothelial Growth Medium, EGM, containing 2% foetal calf serum. The HUVEC are used at passes 2 to 6 in the assay.
The Human Adult Dermal Fibroblasts are cultured from skin samples which may be obtained from local hospitals. […]
The tissue culture treated vessels to be used in the assay are equilibrated by pre-incubation with EGM, plus and minus treatments, for a period of 30 minutes at 37° C., 5% CO2 humidified atmosphere. […] The cells are resuspended in EGM and counted. […] The techniques and materials involved in culturing endothelial cells are well known to persons of skill in the art, and are readily available from standard texts. […]
Visualization of the tubules is accomplished most readily by an immunoassay that targets a cell marker on one or both of the cells being cultured. […]

Q: How did the tubule formation turn out when VEGF was run?
A: The tubule formation was “marked increase; also recorded: much enhanced”.
